“Also recorded” adds a separate entry of the source.
Assays:
[1] = system: DU145-pCK19-GFP and 22Rv1-pCK19-GFP sorted cells; test: Colony formation assay of GFP-sorted cells; assay type: cell-based, human; settings: 72 hours; for colony formation of CK19/GFP-negative cells with PI3K/AKT and Bcl-2 inhibition: LY294002 50 μM, ABT-737 10 μM; for colony formation of CK19/GFP-negative cells / colony formation of CK19/GFP-positive cells: Mitoxantrone 125/500 nM, Cisplatin 5/2.5 μM, Vinorelbine 500/750 nM (DU145/22Rv1)
Description: (§1) Cells were exposed to vehicle solution (Control), LY294002 (50 μM), and ABT-737 (10 μM) for 72 hours, alone or in combination.

CK19/GFP-negative cells = test: Apoptotic response by Caspase-3 and PARP cleavage immunoblot; assay type: cell-based, human; settings: LY294002 50 μM, ABT-737 10 μM, 72 hours
Description: (§2) Whole cell extracts were prepared in sample buffer and analyzed by immunoblotting. Primary antibodies against poly (ADP-ribose) polymerase (PARP) (BD Pharmingen), cleaved caspase-3 (Cell Signaling), cytokeratin 19 (CK19) (Abcam), cytokeratin 18 (CK18) (Abcam), androgen receptor (AR) (Sigma-Aldrich), prostate specific membrane antigen (PSMA) (Abcam), prostate specific antigen (PSA) (Epitomics), cytokeratin 5 (CK5) (Covance), cytokeratin 14 (CK14) (Biogenex), p63 (Santa Cruz), CD44 (Neomarkers), activated Notch2 (Abcam), Hes1 (Abcam), Patched (Abcam), Gli1 (Santa Cruz), Gli2 (Abcam), pan-HLA class I (Abcam), and AKT (Cell Signaling), phospho-AKT Ser 473 (Cell Signaling), Bcl-2 (Cell Signaling), ABCB1/P-Glycoprotein (Calbiochem), Green fluorescent protein (Santa Cruz), and β-Actin (Sigma-Aldrich) were used in immunoblot assays using standard procedures. Protein expression was quantified by comparing band expression using Quantity One software (Bio-Rad).
as §1

[2] = system: Notch and Hedgehog pathway target genes; test: Quantitative RT-PCR of Notch and Hedgehog pathway target genes in cells; assay type: cell-based, human; settings: 1 μM, 72 hours, DU145-pCK19-GFP and 22Rv1-pCK19-GFP cells
Description: Total RNA was isolated using the RNeasy Mini kit according to the manufacturer's instructions (Qiagen). Complementary DNA was synthesized from equivalent concentrations of total RNA using the SuperScript III First-Strand Synthesis SuperMix Kit (Invitrogen) according to the manufacturer's instructions. Coding sequences for genes of interest and β-Actin as an internal control were amplified from 500 ng of complementary DNA using the QuantiTect SYBR Green PCR Kit (Qiagen).
Amplification was carried out using a Stratagene mx3005p (Agilent Technologies). Cycle threshold (Ct) values were determined and normalized to the housekeeping gene (β-actin) for each experiment. Fold changes for experimental groups relative to respective controls were calculated using MX Pro software (Agilent Technologies). Quantitative RT-PCR was performed in DU145-pCK19-GFP and 22Rv1-pCK19-GFP cells as well as in cells obtained from mice bearing DU145 and 22Rv1 tumor xenografts treated for 21 days with Docetaxel, and Hedgehog and Notch inhibitors, alone or in combination. Quantitative RT-PCR was performed in tumor xenografts removed 4 hours after the last drug dose was administered.

Bcl-2 = test: Immunoblot of Bcl-2 expression; assay type: cell-based, human; settings: 1 μM, 72 hours, CK19/GFP-negative cells
Description: Whole cell extracts were prepared in sample buffer and analyzed by immunoblotting. […] Protein expression was quantified by comparing band expression using Quantity One software (Bio-Rad).

p-AKT (Ser473) = test: Immunoblot of AKT phosphorylation; assay type: cell-based, human; settings: 1 μM, 72 hours, CK19/GFP-negative cells
Description: as §2

DU145-pCK19-GFP cells = test: Flow cytometry of viable CK19/GFP populations after Docetaxel; assay type: cell-based, human; settings: 10 nM Docetaxel for 72 h
Description: (§3) Flow cytometry analysis of subpopulations of prostate cancer cells were carried out following standard procedures. Intracellular CK19 and CK18 expression analysis was performed in single-cell suspensions fixed with 70% ethanol, whereas the expression of cell surface HLA class I was determined in fresh cell samples (without fixation). Primary antibodies against CK19 (Abcam), CK18 (Abcam), HLA class I (Abcam), HLA class I conjugated to phycoerythrin (Abcam), and GFP (Abcam) were used. […] Samples were acquired with a FACscan Flow Cytometer (BD Biosciences) and analyzed with CellQuest Pro software (BD Biosciences). A minimum of 10,000 cells were measured per sample.

22Rv1-pCK19-GFP cells = test: as above; assay type: cell-based, human; settings: 50 nM Docetaxel
Description: as §3

[3] = system: DU145 and 22Rv1 xenografts; test: Percentage of CK-negative cells in tumor xenografts; assay type: in vivo, NOD/SCID mice; settings: treated for 4 weeks
Description: Immunofluorescence analyses were conducted on prostate cancer cell lines and formalin fixed paraffin-embedded tissue sections from normal human prostate, human cancers, and tumor xenografts. Primary antibodies included a combination of cytokeratin 19 and 18 (Abcam), green fluorescence protein (Abcam), cytokeratin 5 (Covance), cytokeratin 14 (Biogenex), p63 (Santa Cruz), pan-HLA class I (Abcam), Ki67 (Abcam) and the following transcription factors: activated Notch2 (Abcam), Gli1 (Santa Cruz), Gli2 (Abcam) and androgen receptor (DAKO). […] Prostate cancer cells (10,000) were plated in 35 mm culture dishes and 24 hours later stained by standard immunofluorescence procedures. Tissue sections (5 μm) were deparaffinized and submitted to standard peroxidase based immunohistochemistry and immunofluorescence procedures. Quantification of the expression of cytokeratins, HLA class I antigens, transcription factors, and androgen receptor was performed by evaluating tumor cells. Percentage of positive and negative cells was determined by counting the number of tumor cells in 10 contiguous high power fields in three different areas of the tumor, and referred to the total number of counted cancer cells.

[4] = system: DU145-pCK19-GFP and 22Rv1-pCK19-GFP cells; test: Immunoblots of Docetaxel-resistance markers in unsorted cells; assay type: cell-based, human; settings: Docetaxel 72 hours (10 nM DU145, 50 nM 22Rv1)
Description: as §2

[5] = system: DU145-pCK19-GFP and 22Rv1-pCK19-GFP cells; test: Live cell imaging (time-lapse) in presence of Docetaxel; assay type: cell-based, human; settings: in the presence of Docetaxel
Description: Time-lapse videomicroscopy was used to assess Docetaxel sensitivity of DU145-pCK19-GFP and 22Rv1-pCK19-GFP cells. Cells growing in 6-well plates at low confluence were placed in the stage inside an incubator chamber at 37° C., 50% humidity, and in an atmosphere of 5% CO2. Unattended time-lapse movies of randomly chosen GFP+ and GFP− DU145 and 22Rv1 cells were performed with a Nikon Eclipse Ti inverted microscope. NIS Elements AR (Nikon) software was used to collect and process data. Imaging was performed using a 10× objective, and images were captured using 200-ms exposure times for GFP and 20-ms exposure times for bright field every 30 min.

Cl.O=c1cc(N2CCOCC2)oc2c(-c3ccccc3)cccc12 [LY294002, 2-(4-Morpholinyl)-8-phenyl-1(4H)-benzopyran-4-one hydrochloride]
colony formation of CK19/GFP-negative cells with PI3K/AKT and Bcl-2 inhibition [1]: not individual
apoptosis (PARP and Caspase-3 cleavage) with PI3K/AKT and Bcl-2 inhibition (CK19/GFP-negative cells): not individual

CC1=C2C[C@H]3[C@@H](CC=C4C[C@@H](O)CC[C@@]43C)[C@@H]2CC[C@]12O[C@@H]1C[C@H](C)CN[C@H]1[C@H]2C [Cyclopamine]
targeting of respective pathway (mRNA of pathway target genes) [2]: targeting their respective pathways
Bcl-2 expression level (Bcl-2): significantly reduced; also recorded: reduces

CN(C)CC[C@H](CSc1ccccc1)Nc1ccc(S(=O)(=O)NC(=O)c2ccc(N3CCN(Cc4ccccc4-c4ccc(Cl)cc4)CC3)cc2)cc1[N+](=O)[O-] [ABT-737]
colony formation of CK19/GFP-negative cells with PI3K/AKT and Bcl-2 inhibition [1]: not individual
apoptosis (PARP and Caspase-3 cleavage) with PI3K/AKT and Bcl-2 inhibition (CK19/GFP-negative cells): not individual

C[C@H](NC(=O)Cc1cc(F)cc(F)c1)C(=O)N[C@H]1N=C(c2ccccc2)c2ccccc2N(C)C1=O [Compound E]
p-AKT (Ser473) level (p-AKT (Ser473); listed as CE): significantly reduced; also recorded: specifically decreases
targeting of respective pathway (mRNA of pathway target genes) [2]: targeting their respective pathways

C[C@H](NC(=O)Cc1cc(F)cc(F)c1)C(=O)NC1C(=O)N(C)c2ccccc2-c2ccccc21 (stereo partly drawn) [DBZ, (2S)-2-[2-(3,5-difluorophenyl)-acetylamino]-N-(5-methyl-6-oxo-6,7-dihydro-5H-dibenzo[b,-d]azepin-7-yl)-propionamide]
p-AKT (Ser473) level (p-AKT (Ser473)): significantly reduced; also recorded: decreases
targeting of respective pathway (mRNA of pathway target genes) [2]: targeting their respective pathways

CC(=O)O[C@@]12CO[C@@H]1C[C@H](O)[C@@]1(C)C(=O)[C@H](O)C3=C(C)[C@@H](OC(=O)[C@H](O)[C@@H](NC(=O)OC(C)(C)C)c4ccccc4)C[C@@](O)([C@@H](OC(=O)c4ccccc4)[C@H]21)C3(C)C [Docetaxel]
viable CK19/GFP-negative population (DU145-pCK19-GFP cells; 4.4±4.3% before treatment): 73.1±10.2%
viable CK19/GFP-positive population (DU145-pCK19-GFP cells; 87.5±10.4% before treatment): 28.3±10.6%
viable 22Rv1-pCK19-GFP-negative cells (22Rv1-pCK19-GFP cells; 8.5±3.5% before treatment): 78.6±4.1%
viable CK19/GFP-positive cells (22Rv1-pCK19-GFP cells; 85.0±2.0% before treatment): 19.3±3.4%
colony formation after exposure to Docetaxel ([1]; Docetaxel 10 nM (DU145) and 50 nM (22Rv1)): only CK19/GFP-negative cells formed colonies
CK-negative cells in xenografts [3]: enriched for CK-negative cells
differentiation markers and developmental signaling pathways [4]: expected reduction in differentiation markers and increase in developmental signaling pathways
behavior of CK19/GFP-negative cells under therapy [5]: able to divide and exit mitosis
behavior of CK19/GFP-positive cells under therapy [5]: died after mitotic arrest

O=C1c2c(O)ccc(O)c2C(=O)c2c(NCCNCCO)ccc(NCCNCCO)c21 [Mitoxantrone]
colony formation of CK19/GFP-negative cells [1]: formed colonies
colony formation of CK19/GFP-positive cells [1]: failed to do so

CS(=O)(=O)c1ccc(C(=O)Nc2ccc(Cl)c(-c3ccccn3)c2)c(Cl)c1 [GDC-0449, Vismodegib]
targeting of respective pathway (mRNA of pathway target genes) [2]: targeting their respective pathways
Bcl-2 expression level (Bcl-2): significantly reduced; also recorded: reduces

CCC1=C[C@@H]2CN(C1)Cc1c([nH]c3ccccc13)[C@@](C(=O)OC)(c1cc3c(cc1OC)N(C)[C@H]1[C@@](O)(C(=O)OC)[C@H](OC(C)=O)[C@]4(CC)C=CCN5CC[C@]31[C@@H]54)C2 [Vinorelbine]
colony formation of CK19/GFP-negative cells [1]: formed colonies
colony formation of CK19/GFP-positive cells [1]: failed to do so

N.N.[Cl][Pt][Cl] [Cisplatin]
colony formation of CK19/GFP-negative cells [1]: formed colonies
colony formation of CK19/GFP-positive cells [1]: failed to do so

— US20150272970A1, “TARGETING CHEMOTHERAPY AGENT RESISTANCE IN CANCER” (priority 2012, published 2015)
